Laboratory results published in ChEMBL document CHEMBL3885881, “DrugMatrix”.

Organism: Rattus norvegicus
Test: DrugMatrix - Regimen: Daily Repeat
Assay type: toxicity, organism-based, Sprague-Dawley
Parameters: regimen Daily Repeat, gender Male, age 6-8 weeks
Settings: in vivo, iv, vehicle 100 % SALINE; for ABSOLUTE BASOPHIL / ABSOLUTE EOSINOPHIL / ABSOLUTE LYMPHOCYTE / ABSOLUTE MONOCYTE / ABSOLUTE SEGMENTED NEUTROPHIL / BASOPHIL / EOSINOPHIL / ERYTHROCYTE COUNT / HEMATOCRIT / HEMOGLOBIN / LEUKOCYTE COUNT / LYMPHOCYTE / MEAN CORPUSCULAR HEMOGLOBIN / MEAN CORPUSCULAR HEMOGLOBIN CONCENTRATION / MEAN CORPUSCULAR VOLUME / MONOCYTE / NEUTROPHIL / NUCLEATED RED BLOOD CELLS / PLATELET COUNT: tissue Blood; for ALANINE AMINOTRANSFERASE / ALBUMIN / ALKALINE PHOSPHATASE / ASPARTATE AMINOTRANSFERASE / BLOOD UREA NITROGEN / CARBON DIOXIDE / CHLORIDE / CHOLESTEROL / CREATINE PHOSPHOKINASE / CREATININE / GLUCOSE / LACTATE DEHYDROGENASE / LIPASE / PHOSPHORUS / POTASSIUM / SODIUM / TOTAL BILIRUBIN / TOTAL PROTEIN / URIC ACID: tissue Plasma
[1] = 120 mg/kg, 72 h, dose level High, time 3 day
[2] = 120 mg/kg, 120 h, dose level High, time 5 day
[3] = […], 72 h, dose 8.2 mg/Kg, dose level Low, time 3 day
[4] = […], 120 h, dose 8.2 mg/Kg, dose level Low, time 5 day

Compound: [H]/N=C(/N)N[C@H]1[C@H](O)[C@@H](O)[C@H](O[C@@H]2O[C@@H](C)[C@](O)(C=O)[C@H]2O[C@@H]2O[C@@H](CO)[C@H](O)[C@@H](O)[C@@H]2NC)[C@@H](N/C(N)=N\[H])[C@@H]1O [STREPTOMYCIN]
- ABSOLUTE BASOPHIL [1]: 0 CELLS/uL
- ABSOLUTE EOSINOPHIL [1]: 272.33 CELLS/uL
- ABSOLUTE LYMPHOCYTE [1]: 11274.33 CELLS/uL
- ABSOLUTE MONOCYTE [1]: 397 CELLS/uL
- ABSOLUTE SEGMENTED NEUTROPHIL [1]: 1289.67 CELLS/uL
- BASOPHIL [1]: 0%
- EOSINOPHIL [1]: 2%
- ERYTHROCYTE COUNT [1]: 5.88 x10E6/uL
- HEMATOCRIT [1]: 36.13%
- HEMOGLOBIN [1]: 13.67 G/DL
- LEUKOCYTE COUNT [1]: 13.23 x10E3/uL
- LYMPHOCYTE [1]: 85.33%
- MEAN CORPUSCULAR HEMOGLOBIN [1]: 23.3 pg
- MEAN CORPUSCULAR HEMOGLOBIN CONCENTRATION [1]: 37.8 G/DL
- MEAN CORPUSCULAR VOLUME [1]: 61.53 fL
- MONOCYTE [1]: 3%
- NEUTROPHIL [1]: 9.67%
- NUCLEATED RED BLOOD CELLS [1]: 0.33 /100WBC
- PLATELET COUNT [1]: 1314 x10E3/uL
- ALANINE AMINOTRANSFERASE [1]: 43 u/L
- ALBUMIN [1]: 4.27 G/DL
- ALKALINE PHOSPHATASE [1]: 316.67 u/L
- ASPARTATE AMINOTRANSFERASE [1]: 75.67 u/L
- BLOOD UREA NITROGEN [1]: 18.33 mg/dL
- CARBON DIOXIDE [1]: 24.67 mmol/L
- CHLORIDE [1]: 106 MEQ/L
- CHOLESTEROL [1]: 86 mg/dL
- CREATINE PHOSPHOKINASE [1]: 233.67 u/L
- CREATININE [1]: 0.28 mg/dL
- GLUCOSE [1]: 150.33 mg/dL
- LACTATE DEHYDROGENASE [1]: 355.67 u/L
- LIPASE [1]: 9 u/L
- PHOSPHORUS [1]: 12.8 mg/dL
- POTASSIUM [1]: 6.3 MEQ/L
- SODIUM [1]: 147.3 MEQ/L
- TOTAL BILIRUBIN [1]: 0.23 mg/dL
- TOTAL PROTEIN [1]: 6.03 G/DL
- URIC ACID [1]: 1.3 mg/dL
- ABSOLUTE BASOPHIL [2]: 0 CELLS/uL
- ABSOLUTE EOSINOPHIL [2]: 0 CELLS/uL
- ABSOLUTE LYMPHOCYTE [2]: 15247.67 CELLS/uL
- ABSOLUTE MONOCYTE [2]: 224.67 CELLS/uL
- ABSOLUTE SEGMENTED NEUTROPHIL [2]: 2294.33 CELLS/uL
- BASOPHIL [2]: 0%
- EOSINOPHIL [2]: 0%
- ERYTHROCYTE COUNT [2]: 5.9 x10E6/uL
- HEMATOCRIT [2]: 36.63%
- HEMOGLOBIN [2]: 13.87 G/DL
- LEUKOCYTE COUNT [2]: 17.77 x10E3/uL
- LYMPHOCYTE [2]: 85.33%
- MEAN CORPUSCULAR HEMOGLOBIN [2]: 23.5 pg
- MEAN CORPUSCULAR HEMOGLOBIN CONCENTRATION [2]: 37.83 G/DL
- MEAN CORPUSCULAR VOLUME [2]: 62.1 fL
- MONOCYTE [2]: 1.33%
- NEUTROPHIL [2]: 13.33%
- NUCLEATED RED BLOOD CELLS [2]: 0 /100WBC
- PLATELET COUNT [2]: 1316.67 x10E3/uL
- ALANINE AMINOTRANSFERASE [2]: 42.33 u/L
- ALBUMIN [2]: 4.33 G/DL
- ALKALINE PHOSPHATASE [2]: 270 u/L
- ASPARTATE AMINOTRANSFERASE [2]: 91 u/L
- BLOOD UREA NITROGEN [2]: 18.67 mg/dL
- CARBON DIOXIDE [2]: 25 mmol/L
- CHLORIDE [2]: 104 MEQ/L
- CHOLESTEROL [2]: 61 mg/dL
- CREATINE PHOSPHOKINASE [2]: 601.67 u/L
- CREATININE [2]: 0.19 mg/dL
- GLUCOSE [2]: 177.67 mg/dL
- LACTATE DEHYDROGENASE [2]: 433 u/L
- LIPASE [2]: 8.67 u/L
- PHOSPHORUS [2]: 14 mg/dL
- POTASSIUM [2]: 6.21 MEQ/L
- SODIUM [2]: 147.03 MEQ/L
- TOTAL BILIRUBIN [2]: 0.13 mg/dL
- TOTAL PROTEIN [2]: 6.3 G/DL
- URIC ACID [2]: 1.83 mg/dL
- ABSOLUTE BASOPHIL [3]: 0 CELLS/uL
- ABSOLUTE EOSINOPHIL [3]: 0 CELLS/uL
- ABSOLUTE LYMPHOCYTE [3]: 16010 CELLS/uL
- ABSOLUTE MONOCYTE [3]: 231.33 CELLS/uL
- ABSOLUTE SEGMENTED NEUTROPHIL [3]: 1025.33 CELLS/uL
- BASOPHIL [3]: 0%
- EOSINOPHIL [3]: 0%
- ERYTHROCYTE COUNT [3]: 6.28 x10E6/uL
- HEMATOCRIT [3]: 40.03%
- HEMOGLOBIN [3]: 14.6 G/DL
- LEUKOCYTE COUNT [3]: 17.27 x10E3/uL
- LYMPHOCYTE [3]: 92.67%
- MEAN CORPUSCULAR HEMOGLOBIN [3]: 23.33 pg
- MEAN CORPUSCULAR HEMOGLOBIN CONCENTRATION [3]: 36.47 G/DL
- MEAN CORPUSCULAR VOLUME [3]: 63.9 fL
- MONOCYTE [3]: 1.33%
- NEUTROPHIL [3]: 6%
- NUCLEATED RED BLOOD CELLS [3]: 0 /100WBC
- PLATELET COUNT [3]: 1313.67 x10E3/uL
- ALANINE AMINOTRANSFERASE [3]: 51.67 u/L
- ALBUMIN [3]: 4.5 G/DL
- ALKALINE PHOSPHATASE [3]: 417.33 u/L
- ASPARTATE AMINOTRANSFERASE [3]: 82.67 u/L
- BLOOD UREA NITROGEN [3]: 13.67 mg/dL
- CARBON DIOXIDE [3]: 23 mmol/L
- CHLORIDE [3]: 105.33 MEQ/L
- CHOLESTEROL [3]: 84 mg/dL
- CREATINE PHOSPHOKINASE [3]: 198.33 u/L
- CREATININE [3]: 0.22 mg/dL
- GLUCOSE [3]: 155.33 mg/dL
- LACTATE DEHYDROGENASE [3]: 234 u/L
- LIPASE [3]: 9 u/L
- PHOSPHORUS [3]: 14.77 mg/dL
- POTASSIUM [3]: 7.14 MEQ/L
- SODIUM [3]: 148.8 MEQ/L
- TOTAL BILIRUBIN [3]: 0.2 mg/dL
- TOTAL PROTEIN [3]: 6.33 G/DL
- URIC ACID [3]: 2.1 mg/dL
- ABSOLUTE BASOPHIL [4]: 0 CELLS/uL
- ABSOLUTE EOSINOPHIL [4]: 277 CELLS/uL
- ABSOLUTE LYMPHOCYTE [4]: 11716.67 CELLS/uL
- ABSOLUTE MONOCYTE [4]: 225 CELLS/uL
- ABSOLUTE SEGMENTED NEUTROPHIL [4]: 1048 CELLS/uL
- BASOPHIL [4]: 0%
- EOSINOPHIL [4]: 2%
- ERYTHROCYTE COUNT [4]: 5.69 x10E6/uL
- HEMATOCRIT [4]: 36.1%
- HEMOGLOBIN [4]: 13.83 G/DL
- LEUKOCYTE COUNT [4]: 13.27 x10E3/uL
- LYMPHOCYTE [4]: 88.67%
- MEAN CORPUSCULAR HEMOGLOBIN [4]: 24.27 pg
- MEAN CORPUSCULAR HEMOGLOBIN CONCENTRATION [4]: 38.33 G/DL
- MEAN CORPUSCULAR VOLUME [4]: 63.43 fL
- MONOCYTE [4]: 1.67%
- NEUTROPHIL [4]: 7.67%
- NUCLEATED RED BLOOD CELLS [4]: 0 /100WBC
- PLATELET COUNT [4]: 1319.67 x10E3/uL
- ALANINE AMINOTRANSFERASE [4]: 44 u/L
- ALBUMIN [4]: 4.43 G/DL
- ALKALINE PHOSPHATASE [4]: 308.33 u/L
- ASPARTATE AMINOTRANSFERASE [4]: 87.33 u/L
- BLOOD UREA NITROGEN [4]: 20.67 mg/dL
- CARBON DIOXIDE [4]: 24.33 mmol/L
- CHLORIDE [4]: 106.67 MEQ/L
- CHOLESTEROL [4]: 58.67 mg/dL
- CREATINE PHOSPHOKINASE [4]: 307 u/L
- CREATININE [4]: 0.18 mg/dL
- GLUCOSE [4]: 143 mg/dL
- LACTATE DEHYDROGENASE [4]: 514.33 u/L
- LIPASE [4]: 9 u/L
- PHOSPHORUS [4]: 12.6 mg/dL
- POTASSIUM [4]: 6.63 MEQ/L
- SODIUM [4]: 147.1 MEQ/L
- TOTAL BILIRUBIN [4]: 0.17 mg/dL
- TOTAL PROTEIN [4]: 6.27 G/DL
- URIC ACID [4]: 1.5 mg/dL
